One assay has as its target T1, TGF-beta receptor type-1 (Homo sapiens, UniProt P36897).
T1 sequence (P36897 whole entry): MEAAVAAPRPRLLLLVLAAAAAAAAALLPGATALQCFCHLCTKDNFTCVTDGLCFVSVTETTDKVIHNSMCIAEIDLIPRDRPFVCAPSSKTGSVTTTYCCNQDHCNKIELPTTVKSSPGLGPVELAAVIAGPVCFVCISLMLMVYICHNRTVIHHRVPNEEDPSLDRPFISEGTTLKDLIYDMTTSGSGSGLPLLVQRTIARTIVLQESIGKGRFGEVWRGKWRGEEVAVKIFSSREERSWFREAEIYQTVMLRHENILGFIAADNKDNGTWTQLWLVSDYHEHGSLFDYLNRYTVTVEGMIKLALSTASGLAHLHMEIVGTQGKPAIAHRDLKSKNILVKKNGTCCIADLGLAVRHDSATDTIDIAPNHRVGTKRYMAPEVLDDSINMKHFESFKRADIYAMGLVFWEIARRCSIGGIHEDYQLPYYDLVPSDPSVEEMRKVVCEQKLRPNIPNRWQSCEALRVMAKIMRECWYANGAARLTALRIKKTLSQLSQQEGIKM

In assay [1] the target is Serine/threonine-protein kinase N2 (Homo sapiens, UniProt Q16513).
Serine/threonine-protein kinase N2, sequence (Q16513 whole entry): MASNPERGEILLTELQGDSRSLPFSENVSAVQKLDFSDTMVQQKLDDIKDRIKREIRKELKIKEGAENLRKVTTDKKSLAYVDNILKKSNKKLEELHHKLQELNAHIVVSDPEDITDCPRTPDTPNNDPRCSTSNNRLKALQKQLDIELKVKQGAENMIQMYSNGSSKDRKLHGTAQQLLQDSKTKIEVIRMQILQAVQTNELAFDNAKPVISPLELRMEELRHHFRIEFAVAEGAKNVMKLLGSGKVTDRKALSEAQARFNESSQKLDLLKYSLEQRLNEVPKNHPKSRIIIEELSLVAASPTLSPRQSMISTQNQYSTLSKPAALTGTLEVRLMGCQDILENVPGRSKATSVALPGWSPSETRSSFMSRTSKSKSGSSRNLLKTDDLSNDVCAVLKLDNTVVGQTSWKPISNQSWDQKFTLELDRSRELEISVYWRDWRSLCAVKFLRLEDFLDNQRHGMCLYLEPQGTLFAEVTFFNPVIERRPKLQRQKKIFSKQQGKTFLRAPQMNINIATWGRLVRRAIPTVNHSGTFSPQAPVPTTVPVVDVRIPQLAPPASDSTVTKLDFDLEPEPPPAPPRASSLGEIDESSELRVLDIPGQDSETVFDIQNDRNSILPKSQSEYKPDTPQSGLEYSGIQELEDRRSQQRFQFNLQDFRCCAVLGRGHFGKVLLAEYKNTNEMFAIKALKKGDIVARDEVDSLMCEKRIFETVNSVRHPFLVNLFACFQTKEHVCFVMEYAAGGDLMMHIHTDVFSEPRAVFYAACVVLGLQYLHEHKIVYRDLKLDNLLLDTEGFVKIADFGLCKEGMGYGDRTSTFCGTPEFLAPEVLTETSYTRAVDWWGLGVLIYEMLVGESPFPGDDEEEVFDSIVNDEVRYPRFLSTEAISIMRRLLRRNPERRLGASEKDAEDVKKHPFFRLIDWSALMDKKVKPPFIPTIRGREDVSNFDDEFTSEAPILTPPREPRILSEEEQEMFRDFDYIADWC
Assay [2] addresses MAP/microtubule affinity-regulating kinase 3 (Homo sapiens, UniProt P27448).
Another assay has as its target T2, Aurora kinase C (Homo sapiens, UniProt Q9UQB9).
T2 sequence (Q9UQB9 whole entry): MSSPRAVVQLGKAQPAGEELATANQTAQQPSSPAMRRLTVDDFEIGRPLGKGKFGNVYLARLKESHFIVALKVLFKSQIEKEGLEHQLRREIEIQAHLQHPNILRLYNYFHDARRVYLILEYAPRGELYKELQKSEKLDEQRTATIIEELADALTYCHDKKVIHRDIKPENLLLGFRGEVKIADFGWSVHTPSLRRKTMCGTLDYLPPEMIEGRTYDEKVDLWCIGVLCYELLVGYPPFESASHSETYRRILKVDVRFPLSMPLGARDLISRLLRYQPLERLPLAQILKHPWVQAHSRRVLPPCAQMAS

In assay [3] the target is MAP kinase-interacting serine/threonine-protein kinase 1 (Homo sapiens, UniProt Q9BUB5).
MAP kinase-interacting serine/threonine-protein kinase 1, sequence (Q9BUB5 whole entry): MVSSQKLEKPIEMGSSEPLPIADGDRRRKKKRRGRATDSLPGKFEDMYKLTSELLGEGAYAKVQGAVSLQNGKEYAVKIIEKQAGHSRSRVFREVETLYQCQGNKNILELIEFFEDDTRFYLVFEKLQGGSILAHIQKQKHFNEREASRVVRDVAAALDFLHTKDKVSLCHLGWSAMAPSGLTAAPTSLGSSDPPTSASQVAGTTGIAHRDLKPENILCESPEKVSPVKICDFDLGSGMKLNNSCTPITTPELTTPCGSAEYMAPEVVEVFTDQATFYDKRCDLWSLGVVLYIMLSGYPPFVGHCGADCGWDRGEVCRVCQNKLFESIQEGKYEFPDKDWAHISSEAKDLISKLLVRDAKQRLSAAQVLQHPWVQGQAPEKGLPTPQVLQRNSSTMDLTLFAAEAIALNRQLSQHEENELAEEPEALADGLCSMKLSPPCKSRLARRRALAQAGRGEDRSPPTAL
Assay [4] addresses T3, Serine/threonine-protein kinase DCLK2 (Homo sapiens, UniProt Q8N568).
T3 sequence (Q8N568 whole entry): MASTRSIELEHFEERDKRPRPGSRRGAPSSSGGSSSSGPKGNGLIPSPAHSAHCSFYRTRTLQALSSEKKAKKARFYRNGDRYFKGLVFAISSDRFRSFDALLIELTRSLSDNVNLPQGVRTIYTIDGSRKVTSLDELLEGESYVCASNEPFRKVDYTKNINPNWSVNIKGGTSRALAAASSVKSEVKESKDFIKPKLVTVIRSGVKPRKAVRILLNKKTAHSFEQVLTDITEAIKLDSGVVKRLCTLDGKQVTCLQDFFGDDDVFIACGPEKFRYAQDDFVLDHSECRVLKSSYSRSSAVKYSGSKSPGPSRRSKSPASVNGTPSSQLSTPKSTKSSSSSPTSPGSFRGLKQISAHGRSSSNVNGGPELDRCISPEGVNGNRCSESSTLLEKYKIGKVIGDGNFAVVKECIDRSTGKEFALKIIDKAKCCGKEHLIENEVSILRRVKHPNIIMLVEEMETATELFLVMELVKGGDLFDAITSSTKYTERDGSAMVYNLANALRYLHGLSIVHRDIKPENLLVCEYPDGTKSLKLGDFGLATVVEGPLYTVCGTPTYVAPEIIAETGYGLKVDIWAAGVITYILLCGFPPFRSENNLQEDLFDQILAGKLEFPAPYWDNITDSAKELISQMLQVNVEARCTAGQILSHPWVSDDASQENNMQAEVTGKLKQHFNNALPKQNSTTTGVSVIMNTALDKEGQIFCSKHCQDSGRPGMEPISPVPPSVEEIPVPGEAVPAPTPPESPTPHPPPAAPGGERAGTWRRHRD

Assay [5] concerns the target Tyrosine-protein kinase BTK (Homo sapiens, UniProt Q06187).
Assay [6] concerns the target TRAF2 and NCK-interacting protein kinase (Homo sapiens, UniProt Q9UKE5).

TRAF2 and NCK-interacting protein kinase, sequence (Q9UKE5 whole entry): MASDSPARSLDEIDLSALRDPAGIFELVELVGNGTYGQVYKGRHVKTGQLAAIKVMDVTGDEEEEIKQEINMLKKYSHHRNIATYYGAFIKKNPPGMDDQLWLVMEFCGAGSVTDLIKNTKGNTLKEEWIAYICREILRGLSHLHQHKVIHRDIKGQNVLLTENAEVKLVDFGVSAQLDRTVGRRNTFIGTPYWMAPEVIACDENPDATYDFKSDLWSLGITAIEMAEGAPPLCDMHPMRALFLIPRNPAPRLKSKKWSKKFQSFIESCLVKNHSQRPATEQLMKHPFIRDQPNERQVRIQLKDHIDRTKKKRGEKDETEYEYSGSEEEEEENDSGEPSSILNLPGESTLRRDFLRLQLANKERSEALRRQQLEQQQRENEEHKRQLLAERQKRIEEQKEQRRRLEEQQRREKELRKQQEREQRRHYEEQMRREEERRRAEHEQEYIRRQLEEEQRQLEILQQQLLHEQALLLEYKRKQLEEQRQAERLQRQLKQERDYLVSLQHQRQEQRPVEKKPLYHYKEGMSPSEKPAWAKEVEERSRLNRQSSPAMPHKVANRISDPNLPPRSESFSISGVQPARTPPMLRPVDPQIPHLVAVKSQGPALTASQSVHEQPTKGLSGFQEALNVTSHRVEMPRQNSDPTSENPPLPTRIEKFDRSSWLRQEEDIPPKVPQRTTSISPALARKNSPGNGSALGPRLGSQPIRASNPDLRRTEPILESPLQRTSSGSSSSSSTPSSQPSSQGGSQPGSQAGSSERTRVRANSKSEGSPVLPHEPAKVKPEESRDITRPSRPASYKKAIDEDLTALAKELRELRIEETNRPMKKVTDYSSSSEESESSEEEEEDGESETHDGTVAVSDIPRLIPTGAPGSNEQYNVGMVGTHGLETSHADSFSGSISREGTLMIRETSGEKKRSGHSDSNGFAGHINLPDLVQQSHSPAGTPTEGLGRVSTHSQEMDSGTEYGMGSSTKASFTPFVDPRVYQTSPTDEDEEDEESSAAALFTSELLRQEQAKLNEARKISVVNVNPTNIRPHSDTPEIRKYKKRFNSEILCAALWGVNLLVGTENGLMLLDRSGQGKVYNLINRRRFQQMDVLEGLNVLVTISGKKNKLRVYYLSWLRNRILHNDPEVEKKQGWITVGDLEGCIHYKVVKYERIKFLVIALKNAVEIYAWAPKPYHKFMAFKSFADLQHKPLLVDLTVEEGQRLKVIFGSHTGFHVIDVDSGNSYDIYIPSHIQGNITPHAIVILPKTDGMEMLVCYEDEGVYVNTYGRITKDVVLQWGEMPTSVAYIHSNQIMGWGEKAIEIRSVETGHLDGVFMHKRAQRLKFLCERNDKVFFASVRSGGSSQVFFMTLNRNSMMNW
MAP/microtubule affinity-regulating kinase 3, sequence (P27448 whole entry): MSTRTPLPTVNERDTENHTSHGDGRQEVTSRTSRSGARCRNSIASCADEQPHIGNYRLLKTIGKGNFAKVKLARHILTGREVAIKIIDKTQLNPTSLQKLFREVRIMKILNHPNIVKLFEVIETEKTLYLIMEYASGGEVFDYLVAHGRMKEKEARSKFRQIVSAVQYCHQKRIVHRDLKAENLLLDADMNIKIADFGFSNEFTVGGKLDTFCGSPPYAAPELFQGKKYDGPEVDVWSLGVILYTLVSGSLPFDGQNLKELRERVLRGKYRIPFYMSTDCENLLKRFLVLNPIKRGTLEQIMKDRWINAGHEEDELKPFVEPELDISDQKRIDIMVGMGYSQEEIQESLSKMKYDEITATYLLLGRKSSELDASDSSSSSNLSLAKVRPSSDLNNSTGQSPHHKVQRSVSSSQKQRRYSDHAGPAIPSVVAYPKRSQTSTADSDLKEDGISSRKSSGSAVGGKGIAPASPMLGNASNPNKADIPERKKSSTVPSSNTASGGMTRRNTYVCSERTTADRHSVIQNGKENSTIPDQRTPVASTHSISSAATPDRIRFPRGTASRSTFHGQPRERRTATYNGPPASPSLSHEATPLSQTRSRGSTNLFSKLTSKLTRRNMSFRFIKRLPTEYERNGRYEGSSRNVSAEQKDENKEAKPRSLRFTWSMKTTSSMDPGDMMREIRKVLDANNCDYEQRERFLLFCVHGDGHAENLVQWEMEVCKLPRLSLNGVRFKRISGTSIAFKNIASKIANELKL
Tyrosine-protein kinase BTK, sequence (Q06187 whole entry): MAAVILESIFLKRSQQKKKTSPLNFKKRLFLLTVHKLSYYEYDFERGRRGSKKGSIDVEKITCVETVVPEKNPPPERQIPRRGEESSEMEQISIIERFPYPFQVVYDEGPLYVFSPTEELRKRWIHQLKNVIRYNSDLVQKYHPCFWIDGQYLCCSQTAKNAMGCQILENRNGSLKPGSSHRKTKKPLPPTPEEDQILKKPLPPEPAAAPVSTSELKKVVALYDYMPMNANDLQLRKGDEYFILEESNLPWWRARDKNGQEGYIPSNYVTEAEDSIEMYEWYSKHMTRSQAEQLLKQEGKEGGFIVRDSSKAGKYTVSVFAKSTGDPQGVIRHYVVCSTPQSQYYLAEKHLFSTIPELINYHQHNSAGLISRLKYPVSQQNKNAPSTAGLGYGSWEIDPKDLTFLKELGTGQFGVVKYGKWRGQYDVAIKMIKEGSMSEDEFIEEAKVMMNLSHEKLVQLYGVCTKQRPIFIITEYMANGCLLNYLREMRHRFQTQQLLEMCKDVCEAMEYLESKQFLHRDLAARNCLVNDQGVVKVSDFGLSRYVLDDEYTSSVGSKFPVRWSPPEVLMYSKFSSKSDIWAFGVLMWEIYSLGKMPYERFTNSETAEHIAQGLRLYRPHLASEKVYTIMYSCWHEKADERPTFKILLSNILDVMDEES

For the compound `Oc1ccc(-c2nc(-c3ccncc3)c(-c3ccc(F)cc3)[nH]2)cc1` [SB-202190], the Kd (at TGF-beta receptor type-1; in assay [1]; in assay [2]; at Aurora kinase C; in assay [3]; in assay [4]) was over 10 µM each time. The figures for the dissociation constant Kd in assay [5] and in assay [6] were over 10 µM and 1.6 µM, respectively.

Consider `COCC(=O)NC/C=C/c1ccc2ncnc(Nc3ccc(Oc4ccc(C)nc4)c(C)c3)c2c1` [CP-724714], for which the Kd (at TGF-beta receptor type-1; in assay [1]; in assay [2]; on Aurora kinase C; in assay [3]; in assay [4]) was over 10 µM in each case. The Kd in assay [5] and in assay [6] was over 10 µM throughout.

Consider `Nc1nc(Nc2ccc(S(N)(=O)=O)cc2)nn1C(=O)c1c(F)cccc1F` [JNJ-7706621], for which the Kd (usually a measure of binding affinity in units of concentration) was over 10 µM on TGF-beta receptor type-1; 0.086 µM on Aurora kinase C; over 10 µM in assay [3]; 4.5 µM in assay [4]; over 10 µM in assay [6].

With `NC(=O)c1ccc(-c2nc(-c3ccc4c(c3)OCO4)c(-c3ccccn3)[nH]2)cc1` [SB-431542], the Kd (in assay [1]; in assay [2]; at Aurora kinase C; in assay [3]; in assay [4]; in assay [5]) was over 10 µM in each case. This compound gave a Kd in assay [6] of over 10 µM.

Turning to `CCOc1cc2ncc(C#N)c(Nc3ccc(F)c(Cl)c3)c2cc1NC(=O)/C=C/CN(C)C` [PELITINIB], the Kd (at TGF-beta receptor type-1; in assay [1]; in assay [2]; on Aurora kinase C; in assay [3]; in assay [4]) was over 10 µM each time. For the same compound, the Kd in assay [5] was determined as 4.9 µM.

For the origin of these results see ChEMBL document CHEMBL1150977, “A quantitative analysis of kinase inhibitor selectivity” (Nat Biotechnol, 2008).
